Publication PMC4519322 (PLoS Pathogens, 2015)
Where two headings read alike, the source gives them in different places.

Tests used:
A/WSN/1933 (H1N1) virus = test: microbe, parasite or virus in culture; assay type: cell-based, influenza A virus; conditions: for IC50 / IC90: Influenza A virus
in vitro = conditions: dog, CC50 (50% cytotoxicity concentration), MDCK cells, WST-1 assay
[1] = in vivo; cited from earlier work
[2] = system: recombinant wild-type WSN (rWSN); test: microbe, parasite or virus in culture; assay type: cell-based; conditions: Influenza A virus, H1N1 / WSN, read-out: IC50 (μM) WT rWSM (H1N1)
A/Udorn/307/1972 (H3N2) = test: microbe, parasite or virus in culture; assay type: cell-based; conditions: Influenza A virus, H3N2, MDCK
[3] = system: A/Ck/yamaguchi/7/2004 (H5N1); test: microbe, parasite or virus in culture; assay type: cell-based; conditions: Influenza A virus, H5N1, MDCK
A/Anhui/1/2013(H7N9) = test: microbe, parasite or virus in culture; assay type: cell-based; conditions: Influenza A virus, H7N9, MDCK
[4] = system: A/Massachusetts/3740/1965 (H6N2); test: microbe, parasite or virus in culture; assay type: cell-based; conditions: Influenza A virus, H6N2, MDCK
[5] = system: A/Ontario/6118/1968 (H8N4); test: microbe, parasite or virus in culture; assay type: cell-based; conditions: Influenza A virus, H8N4, MDCK
A/Germany/N/1949 (H10N7) = test: microbe, parasite or virus in culture; assay type: cell-based; conditions: Influenza A virus, MDCK
A/England/1/1956 (H11N6) = test: microbe, parasite or virus in culture; assay type: cell-based; conditions: Influenza A virus, MDCK
[6] = system: A/Alberta/60/1976 (H12N5); test: microbe, parasite or virus in culture; assay type: cell-based; conditions: Influenza A virus, MDCK
[7] = system: A/Astrakhan/263/1982 (H14N15); test: microbe, parasite or virus in culture; assay type: cell-based; conditions: Influenza A virus, MDCK
A/Tex/131 (H3N2) = test: microbe, parasite or virus in culture; assay type: cell-based; conditions: Influenza A virus, H3N2, MDCK
[8] = system: A/California/7/2009 virus (H1N1); test: microbe, parasite or virus in culture; assay type: cell-based; conditions: Influenza A virus, H1N1, MDCK
[9] = system: influenza A/WSN/1933 (H1N1) virus; set-up: species or system Balb/c mice; conditions: mouse, in vivo
vRNP activity = vRNP activity (Influenza A virus, UniProt P15682); assay type: cell-based, influenza A/WSN/1933 (H1N1)
[10] = system: vRNA encoding the PB2 subunit; assay type: cell-based, A/WSN/1933 (H1N1)
viral protein expression = assay type: cell-based
NP = NP (Influenza A virus, UniProt P15682); assay type: cell-based, A/WSN/1933 (H1N1)
NP-Flag = NP-Flag (Influenza A virus, UniProt P15682); assay type: binding
NP-RNA interaction = NP-RNA interaction (Influenza A virus, UniProt P15682); assay type: biochemical
NP-NP interaction = NP-NP interaction (Influenza A virus, UniProt P15682); assay type: biochemical
[11] = target: vRNA-induced NP oligomerization (Influenza A virus, UniProt P15682); assay type: biochemical
[12] = system: nuclear export of NP-mRFP-Flag; test: in vitro nuclear export assay, digitonin-permeabilized HeLa cells; assay type: cell-based; conditions: with HeLa cell lysate, 42% with lysate alone
Experimental: HeLa cells were attached to glass cover slips at 37°C for 24 h and then transiently transfected with NP-mRFP-Flag/pCAGGS. After 48 h, cells were washed twice with cold transport buffer (20 mM HEPES (pH 7.4), 110 mM potassium acetate, 2 mM magnesium acetate, 1 mM EGTA (pH 7.4), 2 mM DTT, 1 μg/mL aprotinin, 1 μg/mL leupeptin, and 1 μg/mL pepstatin) and permeabilized with digitonin (50 μg/mL; Sigma) in transport buffer for 5 min on ice. The cells were then washed with cold transport buffer and incubated with apyrase (10 U/mL; Sigma) for 5 min on ice. After washing twice with cold transport buffer, the cells were incubated in cold transport buffer for 10 min on ice before addition of a the reaction mixture (40 μg HeLa cell lysate, 10 mg/mL bovine serum albumin (BSA), 10 mM ATP, 5 mM creatine phosphate, 0.64 U creatine kinase) containing (or not) the test compounds. The mixture was the incubated at 30°C for 1 h. After washing three times with cold transport buffer, mRFP fluorescence was observed under a confocal laser scanning microscope (FV 1000; Olympus). The fluorescence intensity in the nuclei was analyzed with MetaMorph software (Molecular Devices Inc., Downingtown, PA). The fluorescence intensity of NP-mRFP-Flag was quantified in >100 nuclei in each of three independent experiments.

CRM1 binding to NP = CRM1 binding to NP (Influenza A virus, UniProt P15682); assay type: biochemical
[13] = system: Influenza A/WSN/1933 (H1N1) virus; assay type: cell-based
[14] = system: virus life cycle in MDCK cells; assay type: cell-based
[15] = mouse plasma
in vivo = conditions: Balb/c, mouse, 10 mg/kg
[16] = MDCK, read-out: IC50 (SAR analysis of RK424)

Chain of CRM1 binding to NP (P15682 whole entry, looked up): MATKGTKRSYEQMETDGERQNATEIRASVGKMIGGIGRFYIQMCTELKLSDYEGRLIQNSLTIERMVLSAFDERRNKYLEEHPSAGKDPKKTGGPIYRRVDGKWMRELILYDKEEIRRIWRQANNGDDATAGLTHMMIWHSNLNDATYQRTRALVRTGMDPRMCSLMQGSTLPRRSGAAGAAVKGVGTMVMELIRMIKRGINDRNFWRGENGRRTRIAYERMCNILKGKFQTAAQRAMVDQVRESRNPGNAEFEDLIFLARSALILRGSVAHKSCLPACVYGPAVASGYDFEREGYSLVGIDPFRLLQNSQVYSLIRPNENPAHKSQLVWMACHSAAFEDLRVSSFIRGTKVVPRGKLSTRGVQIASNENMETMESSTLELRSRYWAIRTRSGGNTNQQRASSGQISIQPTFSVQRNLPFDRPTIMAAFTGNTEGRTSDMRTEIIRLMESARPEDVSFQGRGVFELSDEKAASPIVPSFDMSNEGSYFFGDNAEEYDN
Chain of NP (P15682 whole entry, looked up): as above
Chain of vRNP activity (P15682 whole entry, looked up): as above
Chain of NP-RNA interaction (P15682 whole entry, looked up): as above
Chain of NP-NP interaction (P15682 whole entry, looked up): as above
Chain of NP-Flag (P15682 whole entry, looked up): as above
Chain of vRNA-induced NP oligomerization (P15682 whole entry, looked up): as above

NC(=O)c1cc(-c2ccc(-c3ccccc3)cc2)nc2ccccc12 [Analog #1]
antiviral effect relative to RK424 (SAR, in words) (A/WSN/1933 (H1N1) virus): partial reduction in the antiviral effect
IC50 (A/WSN/1933 (H1N1) virus; [16]): 10100 ± 2070 nM
CC50 (in vitro): > 10000 nM

O=C(O)c1cc(N2CCN(c3ccccc3)CC2)nc2ccccc12 [Analog #2]
antiviral effect relative to RK424 (SAR, in words) (A/WSN/1933 (H1N1) virus): complete loss of antiviral activity
IC50 (A/WSN/1933 (H1N1) virus; [16]): > 30000 nM
CC50 (in vitro): > 10000 nM

O=C(O)c1ccnc(-c2ccc(-c3ccccc3)cc2)c1 [Analog #3]
antiviral effect relative to RK424 (SAR, in words) (A/WSN/1933 (H1N1) virus): complete loss of antiviral activity
IC50 (A/WSN/1933 (H1N1) virus; [16]): > 30000 nM
CC50 (in vitro): > 10000 nM

O=C(O)c1cc(-c2ccc(Oc3ccccc3)cc2)nc2ccccc12 [Analog #4]
antiviral effect relative to RK424 (SAR, in words) (A/WSN/1933 (H1N1) virus): antiviral effect comparable with that of RK424
IC50 (A/WSN/1933 (H1N1) virus; [16]): 430 ± 150 nM
CC50 (in vitro): > 10000 nM

NC(=O)c1nc(F)c[nH]c1=O [Analog T-705, favipiravir]
recovery from morbidity, of that of the negative control group [1]: 20%
viral titers in the lung [1]: 3.50 log10 PFU/mL

Cc1onc(-c2ccccc2)c1C(=O)N1CCN(c2ccc([N+](=O)[O-])cc2Cl)CC1 [Nucleozin, nucleozin, reference compound]
IC50 [2]: 0.2 ± 0.03 µM

O=C(O)c1cc(-c2ccc(-c3ccccc3)cc2)nc2ccccc12 [RK424]
plaque formation (number and size) (A/WSN/1933 (H1N1) virus): reduction in the number, but not the size, of viral plaques
IC50 (A/WSN/1933 (H1N1) virus; MDCK): 480 ± 190 nM
IC90 (A/WSN/1933 (H1N1) virus; MDCK): 1190 ± 360 nM
IC50 (A/WSN/1933 (H1N1) virus; read-out: IC50 expressed as ng/mL): 163 ng/mL
IC90 (A/WSN/1933 (H1N1) virus; read-out: IC90 expressed as ng/mL): 390 ng/mL
IC50 (A/Udorn/307/1972 (H3N2)): 490 ± 190 nM
IC90 (A/Udorn/307/1972 (H3N2)): 1230 ± 240 nM
IC50 [3]: 570 ± 40 nM
IC90 [3]: 930 ± 20 nM
IC50 (A/Anhui/1/2013(H7N9)): 600 ± 120 nM
IC90 (A/Anhui/1/2013(H7N9)): 1140 ± 260 nM
IC50 [4]: 590 ± 90 nM
IC90 [4]: 1590 ± 120 nM
IC50 [5]: 490 ± 40 nM
IC90 [5]: 910 ± 20 nM
IC50 (A/Germany/N/1949 (H10N7)): 580 ± 140 nM
IC90 (A/Germany/N/1949 (H10N7)): 1090 ± 80 nM
IC50 (A/England/1/1956 (H11N6)): 570 ± 160 nM
IC90 (A/England/1/1956 (H11N6)): 940 ± 20 nM
IC50 [6]: 620 ± 230 nM
IC90 [6]: 1510 ± 870 nM
IC50 [7]: 420 ± 60 nM
IC90 [7]: 950 ± 10 nM
IC50 (A/Tex/131 (H3N2)): 590 ± 130 nM
IC90 (A/Tex/131 (H3N2)): 980 ± 20 nM
IC50 [8]: 400 ± 70 nM
IC90 [8]: 880 ± 20 nM
IC50 [2]: 0.38 ± 0.04 µM
body weight change (in words) [9]: lost less weight
reduction in the virus titer in the lung compared with controls [9]: ~ 2 log
virus titer in the lungs [9]: 2.9×10^3 PFU/mL
luciferase activity (vRNP activity) (vRNP activity): notable and dose-dependent reduction in luciferase activity
vRNA expression (FISH) [10]: significant reduction in vRNA expression
viral protein expression (western blotting) (viral protein expression): reduction in viral protein expression
NP localization in virus-infected HeLa cells (NP): nuclear rather than cytoplasmic localization of NP
binding of wild-type NP-Flag to RK424 beads (NP-Flag): bound to RK424 beads but not to control beads
RNA binding, less than control samples (NP-RNA interaction): ~50%
binding of NP-HA to NP-mRFP-Flag beads (NP-NP interaction): inhibited the binding of NP-HA to NP-mRFP-Flag beads in a dose-dependent manner
rate of NP oligomerization [11]: dose-dependent reduction in the rate of oligomerization
mRFP fluorescence intensity in the nucleus, % of buffer-treated cells ([12]; 2 μM): 76%
mRFP fluorescence intensity in the nucleus, % of buffer-treated cells ([12]; 10 μM): 134%
binding of CRM1 to NP-Flag beads (CRM1 binding to NP): binding was inhibited
effect on viral replication when added prior to virus inoculation [13]: did not interfere with viral replication
antiviral effect by time of addition [14]: prominent antiviral effect at an early stage in the virus life cycle
Cmax relative to the in vitro IC50 concentration (Cmax 39200 ng/mL vs 162.7 ng/mL): more than 200 times
bioavailability via the oral route relative to the intraperitoneal route, lower by (mice, 10 mg/kg): 50%
free drug maximum concentration (Cfree max) (mice, intravenous 1 mg/kg, plasma): 11.4 ng/mL
free drug maximum concentration (Cfree max) (mice, oral route 10 mg/kg): 46.4 ng/mL
free drug maximum concentration (Cfree max) (mice, context intraperitoneal 10 mg/kg): 156.8 ng/mL
drug free from plasma protein [15]: 0.4%
plasma protein binding ([15]; 50 μM, 37°C 30 min): 99.6%
Vd (in vivo): 0.583 L/kg
Cmax (in vivo; ip): 39200 ng/mL
CC50 (in vitro): ≥ 50000 nM

CCC(=C/[C@H](C)C/C=C/C(C)=C/[C@@H](C)C(=O)[C@@H](C)[C@H](O)[C@@H](C)C/C(C)=C/C(=O)O)/C=C/[C@@H]1OC(=O)C=C[C@@H]1C [leptomycin B, reference compound]
mRFP fluorescence intensity in the nucleus, % of buffer-treated cells ([12]; concentration not given): 97%
binding of CRM1 to NP-Flag beads (CRM1 binding to NP): binding was inhibited

CCOC(=O)C1=C[C@@H](OC(CC)CC)[C@H](NC(C)=O)[C@@H](N)C1 [oseltamivir phosphate, reference compound]
body weight change (in words) [9]: no weight loss
luciferase activity (vRNP activity) (vRNP activity): did not significantly inhibit luciferase activity
NP localization in virus-infected HeLa cells (NP): NP localized in both the nucleus and cytoplasm
